Ends that are not written are not given here.
Molecular target: T1, immobilized ELAM-1 (Homo sapiens, UniProt P16581)
T1 construct: truncated form comprising the complete extracellular domain (amino acids 1 through 554); made in house
T1 sequence (P16581 22-554): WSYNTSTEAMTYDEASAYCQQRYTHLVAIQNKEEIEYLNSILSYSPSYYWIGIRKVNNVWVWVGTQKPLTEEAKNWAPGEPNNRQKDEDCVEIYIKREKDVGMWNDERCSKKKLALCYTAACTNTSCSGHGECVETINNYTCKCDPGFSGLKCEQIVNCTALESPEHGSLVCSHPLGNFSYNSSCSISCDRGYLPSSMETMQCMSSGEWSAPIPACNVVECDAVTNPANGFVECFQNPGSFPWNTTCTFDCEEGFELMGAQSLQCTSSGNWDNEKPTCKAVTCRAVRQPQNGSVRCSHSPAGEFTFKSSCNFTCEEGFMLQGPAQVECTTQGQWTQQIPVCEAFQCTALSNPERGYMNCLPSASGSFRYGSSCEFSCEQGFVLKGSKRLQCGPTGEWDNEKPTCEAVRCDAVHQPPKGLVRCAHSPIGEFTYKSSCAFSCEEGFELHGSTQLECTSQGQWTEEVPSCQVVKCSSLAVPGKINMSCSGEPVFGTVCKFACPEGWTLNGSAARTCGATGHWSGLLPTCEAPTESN
Assay type: cell-based
Conditions: 200000.0
Description: The assay requires HL60 cells labeled with tritiated thymidine. […] The cells are then placed in a T75 flask and incubated at 37° C. for 24 hours. The cells are then collected by centrifugation, washed twice with RPMI/HEPES/0.1% FCS, and resuspended in the same solution at a concentration of about one to two million cells per mL. About 100 μL of this cell preparation are used per well of a 96-well microtiter dish in the assay. The wells of the microtiter dish were first coated with the anti-receptor immobilizing antibody, an anti-HPAP-tail antibody, using about 2.5 μg of antibody per well. […] Then, the wells were washed three times with RPMI 1640 plus 0.1% FCS using a multichannel pipettor.

HITWDQLWNVMN
blocking of HL60 cell binding, relative to binding in the absence of added compound: over 80%
